Assay results published in patent US20250382297A1, “INHIBITORS OF FGFR2 AND FGFR3 AND USES THEREOF” (Insilico Medicine IP Limited, priority 2022, published 2025).
Where two headings read alike, the source gives them in different places.

Assays:
FGFR1 = FGFR1 (Homo sapiens (Human), UniProt P11362); test: FGFR biochemical assay (LanthaScreen TR-FRET kinase assay), FGFR1
Procedure: (§1) Convert Ratio values to percent inhibition values (Percent inhibition=(max−sample Ratio)/(max−min)*100) where “min” means the Ratio of no enzyme control and “max” means the Ratio of DMSO control. • Data are analyzed and curve fitting is performed by XLFit Excel add-in version 5.4.0.8. The IC50 calculation equation is: Y=Bottom+(Top-Bottom)/(1+ (IC50/X)^HillSlope.

FGFR2 = FGFR2 (Homo sapiens (Human), UniProt P21802); test: FGFR biochemical assay (LanthaScreen TR-FRET kinase assay), FGFR2
Procedure: as §1

FGFR3 = FGFR3 (Homo sapiens (Human), UniProt P22607); test: FGFR biochemical assay (LanthaScreen TR-FRET kinase assay), FGFR3
Procedure: as §1

[1] = read-out: FGFR2 IC50, incubation with enzyme at room temperature for 10 minutes before substrate, ATP 22 μM, FGFR2 0.01 nM
[2] = read-out: FGFR3 IC50, incubation with enzyme at room temperature for 10 minutes before substrate, ATP 35 μM, FGFR3 0.1 nM
[3] = read-out: FGFR2 IC50, * incubation at room temperature for 60 minutes before addition of substrate solution, ATP 22 μM, FGFR2 0.01 nM
[4] = read-out: FGFR3 IC50, * incubation at room temperature for 60 minutes before addition of substrate solution, ATP 35 μM, FGFR3 0.1 nM
[5] = read-out: FGFR1 IC50, incubation with enzyme at room temperature for 10 minutes before substrate, ATP 28 μM, FGFR1 0.01 nM

FGFR3, sequence (P22607 23-806): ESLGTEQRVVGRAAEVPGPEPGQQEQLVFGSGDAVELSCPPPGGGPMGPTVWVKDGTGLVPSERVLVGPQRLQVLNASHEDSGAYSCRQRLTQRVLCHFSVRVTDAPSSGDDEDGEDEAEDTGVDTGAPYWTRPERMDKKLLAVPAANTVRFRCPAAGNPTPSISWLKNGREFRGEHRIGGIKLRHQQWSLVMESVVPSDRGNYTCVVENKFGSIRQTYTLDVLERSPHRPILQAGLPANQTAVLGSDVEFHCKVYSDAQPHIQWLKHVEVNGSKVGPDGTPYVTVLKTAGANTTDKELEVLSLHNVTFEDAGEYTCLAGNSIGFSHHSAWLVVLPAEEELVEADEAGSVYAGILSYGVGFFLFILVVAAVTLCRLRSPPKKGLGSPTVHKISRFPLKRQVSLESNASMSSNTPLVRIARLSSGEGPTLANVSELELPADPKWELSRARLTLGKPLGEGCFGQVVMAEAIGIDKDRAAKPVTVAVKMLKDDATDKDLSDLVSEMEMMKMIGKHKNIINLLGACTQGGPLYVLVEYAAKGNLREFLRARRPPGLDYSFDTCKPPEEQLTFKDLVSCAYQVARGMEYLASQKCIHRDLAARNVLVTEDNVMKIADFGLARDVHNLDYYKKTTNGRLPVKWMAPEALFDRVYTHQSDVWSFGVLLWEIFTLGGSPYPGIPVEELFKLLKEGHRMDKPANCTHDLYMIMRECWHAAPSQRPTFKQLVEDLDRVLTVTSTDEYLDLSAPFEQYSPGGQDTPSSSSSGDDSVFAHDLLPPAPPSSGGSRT
FGFR2, sequence (P21802 22-821): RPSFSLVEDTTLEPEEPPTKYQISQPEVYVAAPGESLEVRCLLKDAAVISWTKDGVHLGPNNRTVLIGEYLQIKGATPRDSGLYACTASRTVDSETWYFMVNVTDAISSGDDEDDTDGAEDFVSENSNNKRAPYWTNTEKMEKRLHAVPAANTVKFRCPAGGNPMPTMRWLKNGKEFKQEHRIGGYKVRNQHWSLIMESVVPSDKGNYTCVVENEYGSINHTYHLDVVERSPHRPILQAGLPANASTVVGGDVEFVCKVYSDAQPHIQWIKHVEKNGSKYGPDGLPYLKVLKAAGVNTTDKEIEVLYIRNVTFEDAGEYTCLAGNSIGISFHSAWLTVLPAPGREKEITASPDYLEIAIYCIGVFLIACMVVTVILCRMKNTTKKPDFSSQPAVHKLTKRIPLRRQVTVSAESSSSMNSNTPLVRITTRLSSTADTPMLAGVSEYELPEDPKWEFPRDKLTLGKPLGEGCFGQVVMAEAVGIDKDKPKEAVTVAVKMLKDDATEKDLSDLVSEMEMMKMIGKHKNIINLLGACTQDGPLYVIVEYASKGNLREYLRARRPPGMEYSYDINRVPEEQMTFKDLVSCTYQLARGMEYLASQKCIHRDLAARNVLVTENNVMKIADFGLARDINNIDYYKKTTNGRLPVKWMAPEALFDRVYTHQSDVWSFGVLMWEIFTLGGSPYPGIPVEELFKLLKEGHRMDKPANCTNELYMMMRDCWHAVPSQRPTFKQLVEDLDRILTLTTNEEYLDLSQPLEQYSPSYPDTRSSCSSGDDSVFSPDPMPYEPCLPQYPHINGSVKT
FGFR1, sequence (P11362 22-822): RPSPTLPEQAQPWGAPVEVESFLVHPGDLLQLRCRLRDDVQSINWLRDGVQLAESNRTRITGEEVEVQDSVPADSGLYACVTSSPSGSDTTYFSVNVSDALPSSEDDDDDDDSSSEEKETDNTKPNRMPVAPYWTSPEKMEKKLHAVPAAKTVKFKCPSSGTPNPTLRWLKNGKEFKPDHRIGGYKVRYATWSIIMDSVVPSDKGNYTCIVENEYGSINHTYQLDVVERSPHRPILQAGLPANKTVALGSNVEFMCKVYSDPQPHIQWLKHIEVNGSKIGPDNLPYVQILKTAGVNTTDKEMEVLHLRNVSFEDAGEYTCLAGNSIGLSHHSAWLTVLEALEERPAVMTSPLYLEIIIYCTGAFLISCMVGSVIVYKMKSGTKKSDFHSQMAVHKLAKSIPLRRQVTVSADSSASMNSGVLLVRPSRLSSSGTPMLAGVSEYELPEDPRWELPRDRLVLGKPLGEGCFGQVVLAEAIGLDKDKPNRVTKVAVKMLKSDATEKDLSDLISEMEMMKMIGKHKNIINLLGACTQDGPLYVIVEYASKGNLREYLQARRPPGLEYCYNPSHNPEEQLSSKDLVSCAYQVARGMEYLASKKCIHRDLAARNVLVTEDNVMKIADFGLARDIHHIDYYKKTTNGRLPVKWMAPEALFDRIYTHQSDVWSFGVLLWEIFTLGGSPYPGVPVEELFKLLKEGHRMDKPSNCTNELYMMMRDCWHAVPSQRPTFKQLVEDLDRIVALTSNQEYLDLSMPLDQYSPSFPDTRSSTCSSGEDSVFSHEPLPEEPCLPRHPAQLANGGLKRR

With `C=CC(=O)Nc1ccc(-c2c(-c3ccc(Oc4cccc(C)n4)c(F)c3)c(C(N)=O)c3cnccn23)cc1` [Example 32, 6-(4-acrylamidophenyl)-7-(3-fluoro-4-((6-methylpyridin-2-yl)oxy)phenyl)pyrrolo[1,2-a]pyrazine-8-carboxamide] the IC50 (FGFR1) was 10 to 100 nM, the IC50 (FGFR2; [1]) was less than 10 nM and the IC50 (FGFR3; [2]) was less than 10 nM.

`C=C(F)C(=O)Nc1ccc(-c2c(-c3ccc(Oc4nccc(C)n4)c(F)c3)c(C(N)=O)c3cc(-c4cnn(C)c4)ncn23)c(C)c1` [Example 92, 6-(3-fluoro-4-((4-methylpyrimidin-2-yl)oxy)phenyl)-7-(4-(2-fluoroacrylamido)-2-methylphenyl)-3-(1-methyl-1H-pyrazol-4-yl)pyrrolo[1,2-c]pyrimidine-5-carboxamide] showed an IC50 (FGFR1) of 10 to 100 nM, an IC50 (FGFR2; [3]) of less than 10 nM and an IC50 (FGFR3; [4]) of less than 10 nM.

`C=C(C)C(=O)Nc1ccc(-c2c(-c3ccc(Oc4nccc(C)n4)c(F)c3)c(C(N)=O)c3cnccn23)cc1` [Example 34, 7-(3-fluoro-4-((4-methylpyrimidin-2-yl)oxy)phenyl)-6-(4-methacrylamidophenyl)pyrrolo[1,2-a]pyrazine-8-carboxamide] was tested, and the IC50 (FGFR1; [5]) was greater than 1000 nM, the IC50 (FGFR2) was 100 to 1000 nM and the IC50 (FGFR3) was 100 to 1000 nM.

For `C=CC(=O)Nc1ccc(-c2c(-c3ccc(Oc4cccc(C)n4)cc3)c(C(N)=O)c3ccncn23)cc1` [Example 15, 7-(4-acrylamidophenyl)-6-(4-((6-methylpyridin-2-yl)oxy)phenyl)pyrrolo[1,2-c]pyrimidine-5-carboxamide], the IC50 (FGFR1) was 100 to 1000 nM, the IC50 (FGFR2; [1]) was less than 10 nM and the IC50 (FGFR3) was 10 to 100 nM.

`C=CC(=O)Nc1ccc(-c2c(-c3ccc(OC4CCCC4)cc3)c(C(N)=O)c3cnccn23)cc1` [Example 28, 6-(4-acrylamidophenyl)-7-(4-(cyclopentyloxy)phenyl)pyrrolo[1,2-a]pyrazine-8-carboxamide] gave an IC50 (FGFR1) of 100 to 1000 nM, an IC50 (FGFR2; [1]) of less than 10 nM and an IC50 (FGFR3; [2]) of less than 10 nM.

`C=CC(=O)Nc1ccc(-c2c(-c3ccc(S(=O)(=O)C4CC4)cc3)c(C(N)=O)c3cnccn23)cc1` [Example 27, 6-(4-acrylamidophenyl)-7-(4-(cyclopropylsulfonyl)phenyl)pyrrolo[1,2-a]pyrazine-8-carboxamide] showed an IC50 (FGFR1; [5]) greater than 1000 nM, an IC50 (FGFR2) of 100 to 1000 nM and an IC50 (FGFR3) of 100 to 1000 nM.

Compound `C=CC(=O)Nc1ccc(-c2c(-c3ccc(C(=O)NCC4(F)COC4)cc3)c(C(N)=O)c3cnc(C)cn23)cc1` [Example 64, 6-(4-acrylamidophenyl)-7-(4-(((3-fluorooxetan-3-yl)methyl)carbamoyl)phenyl)-3-methylpyrrolo[1,2-a]pyrazine-8-carboxamide] has an IC50 (FGFR1) of 10 to 100 nM, an IC50 (FGFR2; [1]) of less than 10 nM and an IC50 (FGFR3; [2]) of less than 10 nM.

Compound `C=C(F)C(=O)N1CCCc2cc(-c3c(-c4ccc(Oc5nccc(C)n5)c(F)c4)c(C(N)=O)c4cnc(C)cn34)c(F)cc21` [Example 98, 6-(7-fluoro-1-(2-fluoroacryloyl)-1,2,3,4-tetrahydroquinolin-6-yl)-7-(3-fluoro-4-((4-methylpyrimidin-2-yl)oxy)phenyl)-3-methylpyrrolo[1,2-a]pyrazine-8-carboxamide] has an IC50 (FGFR1; read-out: FGFR1 IC50, * incubation at room temperature for 60 minutes before addition of substrate solution, ATP 28 μM, FGFR1 0.01 nM) greater than 1000 nM, an IC50 (FGFR2) of 100 to 1000 nM and an IC50 (FGFR3) of 100 to 1000 nM.

Compound `C=C(F)C(=O)Nc1ccc(-c2c(-c3ccc(Oc4cc(C)ccn4)cc3)c(C(N)=O)c3cnc(C)cn23)cc1` [Example 52] has an IC50 (FGFR1; [5]) greater than 1000 nM, an IC50 (FGFR2) of 100 to 1000 nM and an IC50 (FGFR3; [2]) greater than 1000 nM.

`C=CC(=O)Nc1ccc(-c2c(-c3ccc(Oc4cccc(C)n4)cc3)c(C(N)=O)c3cnc(CN(C)C)cn23)cc1` [Example 29, 6-(4-acrylamidophenyl)-3-((dimethylamino)methyl)-7-(4-((6-methylpyridin-2-yl)oxy)phenyl)pyrrolo[1,2-a]pyrazine-8-carboxamide] showed an IC50 (FGFR1; [5]) greater than 1000 nM, an IC50 (FGFR2) of 10 to 100 nM and an IC50 (FGFR3) of 100 to 1000 nM.

In the case of `C=CC(=O)Nc1ccc(-c2c(-c3ccc(Oc4nccc(C)n4)cc3)c(C(N)=O)c3cnc(C)cn23)cc1OC` [Example 38, 6-(4-acrylamido-3-methoxyphenyl)-3-methyl-7-(4-((4-methylpyrimidin-2-yl)oxy)phenyl)pyrrolo[1,2-a]pyrazine-8-carboxamide], the IC50 (FGFR1) is reported as 100 to 1000 nM, the IC50 (FGFR2) is reported as 10 to 100 nM and the IC50 (FGFR3) is reported as 10 to 100 nM.

`C=C(F)C(=O)Nc1ccc(-c2c(-c3ccc(Oc4nccc(C)n4)c(F)c3)c(C(N)=O)c3cc(C)cnn23)cc1` [Example 87, 6-(3-fluoro-4-((4-methylpyrimidin-2-yl)oxy)phenyl)-7-(4-(2-fluoroacrylamido)phenyl)-3-methylpyrrolo[1,2-b]pyridazine-5-carboxamide] showed an IC50 (FGFR1) of 10 to 100 nM, an IC50 (FGFR2; [3]) of less than 10 nM and an IC50 (FGFR3) of 10 to 100 nM.

`C=CC(=O)Nc1ccc(-c2c(-c3ccc(Oc4nccc(C)n4)c(F)c3)c(C(N)=O)c3cnc(C)cn23)cc1` [Example 35, 6-(4-acrylamidophenyl)-7-(3-fluoro-4-((4-methylpyrimidin-2-yl)oxy)phenyl)-3-methylpyrrolo[1,2-a]pyrazine-8-carboxamide] gave an IC50 (FGFR1) of 10 to 100 nM, an IC50 (FGFR2; [1]) of less than 10 nM and an IC50 (FGFR3; [2]) of less than 10 nM.

`C=C(F)C(=O)Nc1ccc(-c2c(-c3ccc(Oc4nccc(C)n4)c(F)c3)c(C(N)=O)c3ccc(C)nn23)c(C)c1` [Example 94, 6-(3-fluoro-4-((4-methylpyrimidin-2-yl)oxy)phenyl)-7-(4-(2-fluoroacrylamido)-2-methylphenyl)-2-methylpyrrolo[1,2-b]pyridazine-5-carboxamide] showed an IC50 (FGFR1) of 10 to 100 nM, an IC50 (FGFR2; [3]) of less than 10 nM and an IC50 (FGFR3) of 10 to 100 nM.

`C=C(F)C(=O)N1CCc2cc(-c3c(-c4ccc(Oc5nccc(C)n5)c(F)c4)c(C(N)=O)c4cnc(C)cn34)c(F)cc21` [Example 73, 6-(6-fluoro-1-(2-fluoroacryloyl)indolin-5-yl)-7-(3-fluoro-4-((4-methylpyrimidin-2-yl)oxy)phenyl)-3-methylpyrrolo[1,2-a]pyrazine-8-carboxamide] gave an IC50 (FGFR1) of 10 to 100 nM, an IC50 (FGFR2; [3]) of less than 10 nM and an IC50 (FGFR3; [4]) of less than 10 nM.

In the case of `C=C(F)C(=O)Nc1ccc(-c2c(-c3ccc(Oc4nccc(C)n4)c(F)c3)c(C(N)=O)c3cc(C4CC4)ncn23)cc1` [Example 105, 3-cyclopropyl-6-(3-fluoro-4-((4-methylpyrimidin-2-yl)oxy)phenyl)-7-(4-(2-fluoroacrylamido)phenyl)pyrrolo[1,2-c]pyrimidine-5-carboxamide], the IC50 (FGFR1) is reported as 10 to 100 nM, the IC50 (FGFR2; [3]) is reported as less than 10 nM and the IC50 (FGFR3) is reported as 10 to 100 nM.

`C=CC(=O)Nc1ccc(-c2c(-c3ccc(Oc4cccc(C)n4)cc3)c(C(N)=O)c3cnc(C4CN(C)C4)cn23)cc1` [Example 21, 6-(4-acrylamidophenyl)-3-(1-methylazetidin-3-yl)-7-(4-((6-methylpyridin-2-yl)oxy)phenyl)pyrrolo[1,2-a]pyrazine-8-carboxamide] gave an IC50 (FGFR1) of 100 to 1000 nM, an IC50 (FGFR2; [1]) of less than 10 nM and an IC50 (FGFR3) of 10 to 100 nM.

Compound `Cc1cn2c(-c3ccc(NC(=O)/C=C/CN(C)C)cc3)c(-c3ccc(Oc4cccc(C)n4)cc3)c(C(N)=O)c2cn1` [Example 9, (E)-6-(4-(4-(dimethylamino)but-2-enamido)phenyl)-3-methyl-7-(4-((6-methylpyridin-2-yl)oxy)phenyl)pyrrolo[1,2-a]pyrazine-8-carboxamide] has an IC50 (FGFR1) of 100 to 1000 nM, an IC50 (FGFR2; [1]) of less than 10 nM and an IC50 (FGFR3) of 10 to 100 nM.

`C=C(F)C(=O)Nc1ccc(-c2c(-c3ccc(Oc4nccc(C)n4)cc3)c(C(N)=O)c3cnc(CCO)cn23)cc1` [Example 80, 6-(4-(2-fluoroacrylamido)phenyl)-3-(2-hydroxyethyl)-7-(4-((4-methylpyrimidin-2-yl)oxy)phenyl)pyrrolo[1,2-a]pyrazine-8-carboxamide] showed an IC50 (FGFR1) of 100 to 1000 nM, an IC50 (FGFR2; [3]) of less than 10 nM and an IC50 (FGFR3) of 10 to 100 nM.

`C=C(F)C(=O)N1CCc2c1ccc(-c1c(-c3ccc(Oc4nccc(C)n4)c(F)c3)c(C(N)=O)c3cnc(C)cn13)c2F` [Example 99, 6-(4-fluoro-1-(2-fluoroacryloyl)indolin-5-yl)-7-(3-fluoro-4-((4-methylpyrimidin-2-yl)oxy)phenyl)-3-methylpyrrolo[1,2-a]pyrazine-8-carboxamide] was tested, and the IC50 (FGFR1) was 10 to 100 nM, the IC50 (FGFR2; [3]) was less than 10 nM and the IC50 (FGFR3; [4]) was less than 10 nM.

Compound `C=C(F)C(=O)Nc1ccc(-c2c(-c3ccc(C(=O)NCC4(F)COC4)cc3)c(C(N)=O)c3cnc(C)cn23)cc1` [Example 63, 6-(4-(2-fluoroacrylamido)phenyl)-7-(4-(((3-fluorooxetan-3-yl)methyl)carbamoyl)phenyl)-3-methylpyrrolo[1,2-a]pyrazine-8-carboxamide] has an IC50 (FGFR1) of 10 to 100 nM, an IC50 (FGFR2; [3]) of less than 10 nM and an IC50 (FGFR3) of 10 to 100 nM.

`C=C(F)C(=O)Nc1ccc(-c2c(-c3ccc(Oc4nccc(C)n4)c(F)c3)c(C(N)=O)c3cnc(CCO)cn23)c(F)c1` [Example 82, 7-(3-fluoro-4-((4-methylpyrimidin-2-yl)oxy)phenyl)-6-(2-fluoro-4-(2-fluoroacrylamido)phenyl)-3-(2-hydroxyethyl)pyrrolo[1,2-a]pyrazine-8-carboxamide] gave an IC50 (FGFR1) of 10 to 100 nM, an IC50 (FGFR2; [3]) of less than 10 nM and an IC50 (FGFR3; [4]) of less than 10 nM.

`C=CC(=O)Nc1ccc(-c2c(-c3ccc(Oc4cccc(C)n4)cc3)c(C(N)=O)c3cnc(C4COC4)cn23)cc1` [Example 76, 6-(4-acrylamidophenyl)-7-(4-((6-methylpyridin-2-yl)oxy)phenyl)-3-(oxetan-3-yl)pyrrolo[1,2-a]pyrazine-8-carboxamide] was tested, and the IC50 (FGFR1) was 10 to 100 nM, the IC50 (FGFR2; [1]) was less than 10 nM and the IC50 (FGFR3; [2]) was less than 10 nM.

With `C=CC(=O)Nc1ccc(-c2c(-c3ccc(Oc4nccc(C)n4)c(F)c3)c(C(N)=O)c3cnc(C)cn23)cn1` [Example 36, 6-(6-acrylamidopyridin-3-yl)-7-(3-fluoro-4-((4-methylpyrimidin-2-yl)oxy)phenyl)-3-methylpyrrolo[1,2-a]pyrazine-8-carboxamide] the IC50 (FGFR1) was 10 to 100 nM, the IC50 (FGFR2; [1]) was less than 10 nM and the IC50 (FGFR3; [2]) was less than 10 nM.
